What was measured:
lipoamide = compound: NC(=O)CCCCC1CCSS1 [lipoamide]; experiment: thermal stability z-score vs DMSO; higher = more thermally stabilized by treatment; conditions: HeLa, lipoamide concentration 100 µM
Experimental: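 Cellular thermal proteome profiling in HeLa cells. Cells were treated with 100 µM lipoamide for 1 h, with or without 1 mM arsenate for a further 1 h, then heated to ten temperatures (37-66.3 °C), and soluble protein was quantified by TMT mass spectrometry relative to 0.1% DMSO controls. The thermal stability score (sum of log2 fold changes minus the abundance score) was transformed to a z-score; mean of n = 3 experiments.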

potassium arsenate = compound: O=[As]([O-])(O)O.[K+] [potassium arsenate]; experiment: as above; conditions: HeLa; arsenate concentration 1 mM
Experimental: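 Cellular thermal proteome profiling in HeLa cells treated with 1 mM arsenate for 1 h (DMSO pretreatment), heated to ten temperatures (37-66.3 °C). Soluble protein was quantified by TMT mass spectrometry relative to DMSO controls; the thermal stability score was transformed to a z-score; mean of n = 3 experiments.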

[1] = arsenate co-treatment: 1 mM arsenate 1 h
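Further: each temperature applied for 3 min, abundance score taken as mean log2 fold change at the two lowest temperatures, z-score obtained by mean subtraction and division by SD.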

UniProt O60306, sequence (O60306 whole entry): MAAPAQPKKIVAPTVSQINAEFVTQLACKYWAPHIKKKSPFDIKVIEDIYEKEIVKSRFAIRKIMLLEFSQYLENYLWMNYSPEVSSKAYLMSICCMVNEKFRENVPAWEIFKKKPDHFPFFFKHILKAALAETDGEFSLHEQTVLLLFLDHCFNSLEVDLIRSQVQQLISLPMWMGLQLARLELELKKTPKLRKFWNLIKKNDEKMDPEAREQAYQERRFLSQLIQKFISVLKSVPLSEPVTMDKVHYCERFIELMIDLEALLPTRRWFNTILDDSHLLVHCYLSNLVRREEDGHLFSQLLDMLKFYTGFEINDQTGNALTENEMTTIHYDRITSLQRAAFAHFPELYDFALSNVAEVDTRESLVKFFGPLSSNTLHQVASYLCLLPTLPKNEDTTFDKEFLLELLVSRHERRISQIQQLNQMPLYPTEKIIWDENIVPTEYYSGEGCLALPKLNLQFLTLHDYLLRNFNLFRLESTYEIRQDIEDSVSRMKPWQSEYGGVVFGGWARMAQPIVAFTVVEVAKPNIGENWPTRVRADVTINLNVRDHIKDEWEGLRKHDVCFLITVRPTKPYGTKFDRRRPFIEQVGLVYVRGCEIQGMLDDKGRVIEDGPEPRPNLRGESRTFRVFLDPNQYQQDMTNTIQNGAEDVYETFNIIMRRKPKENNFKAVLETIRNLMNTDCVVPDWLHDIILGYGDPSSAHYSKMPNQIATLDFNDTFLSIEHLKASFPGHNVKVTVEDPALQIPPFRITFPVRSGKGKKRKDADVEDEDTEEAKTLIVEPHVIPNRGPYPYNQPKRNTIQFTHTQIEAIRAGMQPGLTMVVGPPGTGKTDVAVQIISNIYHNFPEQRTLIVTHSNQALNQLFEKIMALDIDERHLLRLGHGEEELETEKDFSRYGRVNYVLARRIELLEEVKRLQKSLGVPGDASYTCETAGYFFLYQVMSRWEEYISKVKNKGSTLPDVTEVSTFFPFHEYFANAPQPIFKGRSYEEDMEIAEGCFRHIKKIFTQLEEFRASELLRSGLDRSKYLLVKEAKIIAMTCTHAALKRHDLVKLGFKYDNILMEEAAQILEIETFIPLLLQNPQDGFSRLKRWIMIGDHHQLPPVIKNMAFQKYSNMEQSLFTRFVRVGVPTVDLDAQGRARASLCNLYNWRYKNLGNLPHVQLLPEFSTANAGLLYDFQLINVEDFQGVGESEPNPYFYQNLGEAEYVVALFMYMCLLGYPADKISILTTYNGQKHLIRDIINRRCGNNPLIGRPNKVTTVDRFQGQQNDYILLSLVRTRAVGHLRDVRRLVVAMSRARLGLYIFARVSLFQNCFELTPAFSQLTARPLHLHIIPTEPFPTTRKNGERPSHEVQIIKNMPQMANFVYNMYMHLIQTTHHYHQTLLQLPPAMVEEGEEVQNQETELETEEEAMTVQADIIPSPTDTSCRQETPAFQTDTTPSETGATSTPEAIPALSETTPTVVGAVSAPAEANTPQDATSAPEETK
UniProt Q9UGM6, sequence (Q9UGM6 whole entry): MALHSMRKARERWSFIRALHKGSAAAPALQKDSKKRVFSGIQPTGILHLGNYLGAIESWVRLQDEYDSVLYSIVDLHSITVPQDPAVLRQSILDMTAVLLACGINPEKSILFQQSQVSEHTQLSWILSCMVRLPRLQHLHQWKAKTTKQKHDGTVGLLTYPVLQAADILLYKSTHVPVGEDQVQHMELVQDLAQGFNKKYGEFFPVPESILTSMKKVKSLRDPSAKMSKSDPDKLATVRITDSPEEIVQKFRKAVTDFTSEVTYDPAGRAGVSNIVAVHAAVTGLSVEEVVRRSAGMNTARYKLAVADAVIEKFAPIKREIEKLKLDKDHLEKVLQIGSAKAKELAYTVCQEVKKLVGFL
UniProt Q15369, sequence (Q15369 whole entry): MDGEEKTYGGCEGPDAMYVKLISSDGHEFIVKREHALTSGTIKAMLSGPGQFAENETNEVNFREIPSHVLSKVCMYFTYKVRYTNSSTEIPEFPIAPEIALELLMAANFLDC
UniProt Q9BTY2, sequence (Q9BTY2 whole entry): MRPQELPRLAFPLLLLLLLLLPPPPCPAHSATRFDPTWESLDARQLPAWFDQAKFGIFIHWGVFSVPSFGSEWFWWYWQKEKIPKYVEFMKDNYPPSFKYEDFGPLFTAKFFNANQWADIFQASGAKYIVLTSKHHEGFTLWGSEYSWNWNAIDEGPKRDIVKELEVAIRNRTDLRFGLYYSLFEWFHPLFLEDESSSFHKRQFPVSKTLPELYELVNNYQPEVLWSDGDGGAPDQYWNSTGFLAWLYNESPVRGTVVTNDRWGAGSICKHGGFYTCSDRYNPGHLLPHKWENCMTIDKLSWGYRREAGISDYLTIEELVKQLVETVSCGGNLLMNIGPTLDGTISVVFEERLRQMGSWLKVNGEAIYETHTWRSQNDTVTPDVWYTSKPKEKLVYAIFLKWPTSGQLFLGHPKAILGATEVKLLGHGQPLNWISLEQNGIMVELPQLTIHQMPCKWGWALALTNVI
UniProt Q9H0R8, sequence (Q9H0R8 whole entry, looked up): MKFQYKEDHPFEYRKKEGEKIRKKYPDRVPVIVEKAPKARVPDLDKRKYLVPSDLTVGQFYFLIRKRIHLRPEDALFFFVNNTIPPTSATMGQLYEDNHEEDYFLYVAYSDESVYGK
UniProt P28288, sequence (P28288 whole entry): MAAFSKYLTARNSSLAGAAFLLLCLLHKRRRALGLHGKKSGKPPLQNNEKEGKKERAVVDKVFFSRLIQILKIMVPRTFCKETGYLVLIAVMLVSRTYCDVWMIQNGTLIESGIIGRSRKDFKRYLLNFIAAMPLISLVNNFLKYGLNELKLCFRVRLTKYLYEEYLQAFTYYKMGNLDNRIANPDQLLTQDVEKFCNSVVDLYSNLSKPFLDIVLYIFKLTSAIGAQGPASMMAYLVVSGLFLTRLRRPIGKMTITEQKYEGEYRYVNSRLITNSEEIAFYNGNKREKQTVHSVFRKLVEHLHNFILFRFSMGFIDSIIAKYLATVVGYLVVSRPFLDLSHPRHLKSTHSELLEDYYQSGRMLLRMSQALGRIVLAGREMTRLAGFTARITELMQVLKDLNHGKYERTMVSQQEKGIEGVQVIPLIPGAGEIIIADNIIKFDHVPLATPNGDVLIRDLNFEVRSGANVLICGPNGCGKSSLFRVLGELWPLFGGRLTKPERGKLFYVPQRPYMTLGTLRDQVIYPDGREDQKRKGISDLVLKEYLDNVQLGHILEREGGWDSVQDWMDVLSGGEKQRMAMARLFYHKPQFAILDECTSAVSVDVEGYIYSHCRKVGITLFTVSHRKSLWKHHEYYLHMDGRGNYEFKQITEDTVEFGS
UniProt Q765P7, sequence (Q765P7 whole entry): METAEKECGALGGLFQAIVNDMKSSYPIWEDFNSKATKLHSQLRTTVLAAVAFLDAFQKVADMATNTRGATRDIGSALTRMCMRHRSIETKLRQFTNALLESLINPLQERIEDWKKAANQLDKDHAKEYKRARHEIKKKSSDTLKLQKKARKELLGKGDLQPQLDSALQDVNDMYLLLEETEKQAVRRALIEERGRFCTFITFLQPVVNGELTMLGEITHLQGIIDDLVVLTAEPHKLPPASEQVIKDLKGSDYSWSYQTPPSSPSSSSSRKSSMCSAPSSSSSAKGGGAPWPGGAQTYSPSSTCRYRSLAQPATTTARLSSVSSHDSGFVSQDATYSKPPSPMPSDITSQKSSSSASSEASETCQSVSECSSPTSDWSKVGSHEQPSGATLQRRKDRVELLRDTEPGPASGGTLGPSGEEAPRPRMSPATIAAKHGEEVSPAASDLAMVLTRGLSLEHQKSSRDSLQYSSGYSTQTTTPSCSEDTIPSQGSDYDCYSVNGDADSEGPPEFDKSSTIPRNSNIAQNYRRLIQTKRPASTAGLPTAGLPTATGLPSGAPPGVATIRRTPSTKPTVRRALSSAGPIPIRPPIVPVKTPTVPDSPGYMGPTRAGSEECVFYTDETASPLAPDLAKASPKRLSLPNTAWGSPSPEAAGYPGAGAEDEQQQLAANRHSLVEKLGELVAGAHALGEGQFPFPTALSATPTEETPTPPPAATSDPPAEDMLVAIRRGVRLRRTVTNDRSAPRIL
UniProt Q9NZC3, sequence (Q9NZC3 whole entry): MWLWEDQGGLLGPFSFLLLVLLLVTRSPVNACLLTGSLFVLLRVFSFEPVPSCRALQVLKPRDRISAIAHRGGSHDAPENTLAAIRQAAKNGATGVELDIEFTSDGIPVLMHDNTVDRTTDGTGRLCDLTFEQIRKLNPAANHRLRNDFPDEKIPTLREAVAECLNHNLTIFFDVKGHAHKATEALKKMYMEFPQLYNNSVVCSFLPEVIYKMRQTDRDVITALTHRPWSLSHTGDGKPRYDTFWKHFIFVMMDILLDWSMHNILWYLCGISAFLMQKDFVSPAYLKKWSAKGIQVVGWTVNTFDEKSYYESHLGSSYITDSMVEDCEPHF
UniProt O75386, sequence (O75386 whole entry): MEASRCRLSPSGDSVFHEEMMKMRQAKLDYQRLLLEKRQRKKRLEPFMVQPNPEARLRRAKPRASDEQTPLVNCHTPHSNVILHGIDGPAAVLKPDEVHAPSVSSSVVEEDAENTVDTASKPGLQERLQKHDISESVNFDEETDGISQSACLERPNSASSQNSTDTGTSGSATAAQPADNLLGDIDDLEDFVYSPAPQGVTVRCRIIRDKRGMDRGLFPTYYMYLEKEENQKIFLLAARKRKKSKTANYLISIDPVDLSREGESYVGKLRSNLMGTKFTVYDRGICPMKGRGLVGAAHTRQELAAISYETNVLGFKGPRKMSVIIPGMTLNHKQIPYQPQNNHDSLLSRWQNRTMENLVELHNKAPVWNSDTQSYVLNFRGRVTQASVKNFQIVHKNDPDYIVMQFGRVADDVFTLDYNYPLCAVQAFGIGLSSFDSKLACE
UniProt P25208, sequence (P25208 whole entry): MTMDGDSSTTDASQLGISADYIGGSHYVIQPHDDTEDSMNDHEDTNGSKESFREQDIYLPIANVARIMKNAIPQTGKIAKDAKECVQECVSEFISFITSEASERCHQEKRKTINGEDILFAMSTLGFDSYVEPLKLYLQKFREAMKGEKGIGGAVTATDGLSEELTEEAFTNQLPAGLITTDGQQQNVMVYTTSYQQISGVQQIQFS

Target | thermal stability z-score (lipoamide; [1]) | thermal stability z-score (lipoamide; arsenate co-treatment: none) | thermal stability z-score (potassium arsenate)
AQR (UniProt O60306) | 0.37 | 0.297 | -0.643
KIAA1217 (UniProt Q5T5P2) | -0.00757 | -0.0174 | 0.188
DHCR7 (UniProt Q9UBM7) | -0.283 | -0.384 | 0.411
STX4 (UniProt Q12846) | 0.741 | 0.546 | -0.199
PLOD3 (UniProt O60568) | -5.29 | -4.8 | 0.333
C9ORF142 (UniProt Q9BUH6) | -0.55 | -0.635 | -0.706
DLG3 (UniProt Q92796) | -0.116 | 0.02 | -0.395
RAP1GAP (UniProt P47736) | -0.459 | -0.26 | 0.233
BCR (UniProt P11274) | -0.0665 | -0.0479 | 0.0296
PARK7 (UniProt Q99497) | 4.83 | 0.686 | 4.42
NFYB (UniProt P25208) | 0.446 | 0.825 | -0.691
TCEB1 (UniProt Q15369) | -0.0847 | -0.122 | -0.0354
DPP8 (UniProt Q6V1X1) | 0.32 | 0.543 | 0.257
SUZ12 (UniProt Q15022) | -0.0278 | -0.101 | -0.186
PSMD13 (UniProt Q9UNM6) | -0.244 | 0.13 | -0.0407
FBXL17 (UniProt Q9UF56) | 0.0273 | -0.0196 | -0.139
MTMR6 (UniProt Q9Y217) | 0.0538 | 0.0997 | -0.39
RRP15 (UniProt Q9Y3B9) | -0.279 | -0.438 | -0.817
METTL14 (UniProt Q9HCE5) | 0.355 | -0.836 | -0.164
PSEN1 (UniProt P49768) | 1.23 | -2 | -2.52
GDE1 (UniProt Q9NZC3) | -0.631 | -0.947 | -1.38
TULP3 (UniProt O75386) | -0.00846 | 0.00888 | -0.00993
WARS2 (UniProt Q9UGM6) | -0.731 | -0.143 | -0.284
RPS19BP1 (UniProt Q86WX3) | -0.305 | -0.278 | -0.522
CEBPZOS (UniProt A8MTT3) | 0.351 | 0.365 | 0.526
ACTL6A (UniProt O96019) | 2.1 | 0.96 | -0.336
CMC1 (UniProt Q7Z7K0) | 0.741 | -0.328 | 0.65
BLVRA (UniProt P53004) | 0.283 | -0.236 | -0.0313

Target | thermal stability z-score (lipoamide; [1]) | thermal stability z-score (lipoamide; arsenate co-treatment: none) | thermal stability z-score (potassium arsenate)
TBL3 (UniProt Q12788) | 0.0946 | -0.105 | -0.338
E2F4 (UniProt Q16254) | 0.295 | 0.54 | 0.373
ANKHD1 (UniProt Q8IWZ3) | -0.133 | -0.523 | 0.37
IPO9 (UniProt Q96P70) | 0.178 | -0.179 | 0.165
ATP6V0D1 (UniProt P61421) | -0.621 | -0.115 | -0.134
UBR5 (UniProt O95071) | -0.165 | -0.0498 | 1.13
GABARAPL1 (UniProt Q9H0R8) | -1.22 | -2.02 | -0.849
CAMLG (UniProt P49069) | 0.508 | 0.0877 | 0.0417
TPM3 (UniProt P06753) | 0.676 | 0.821 | 0.131
FUCA2 (UniProt Q9BTY2) | -0.251 | -0.214 | 1.09
GOLPH3L (UniProt Q9H4A5) | 0.105 | -1.21 | -0.58
HOOK1 (UniProt Q9UJC3) | -1.15 | -0.591 | -0.199
MTSS1L (UniProt Q765P7) | 0.179 | 0.0525 | -0.228
PPWD1 (UniProt Q96BP3) | -0.218 | -0.513 | -0.656
C20ORF27 (UniProt Q9GZN8) | 0.247 | 0.189 | -0.583
CTTNBP2NL (UniProt Q9P2B4) | 1.4 | 1.54 | 1.26
EPB41L2 (UniProt O43491) | -0.283 | -0.0411 | 0.128
NUDT12 (UniProt Q9BQG2) | 0.0414 | 0.0448 | 0.253
TBC1D10A (UniProt Q9BXI6) | -0.00261 | -0.137 | 0.0768
UPF2 (UniProt Q9HAU5) | -0.16 | 0.104 | 0.0278
GLMN (UniProt Q92990) | -0.559 | -0.296 | -0.181
ABCD3 (UniProt P28288) | -0.0141 | -0.0329 | -0.13
AIDA (UniProt Q96BJ3) | -0.00864 | 0.00569 | -0.0785
GLCE (UniProt O94923) | 0.386 | 0.177 | 0.231
MLH1 (UniProt P40692) | -0.0694 | 0.372 | 1.04
EML4 (UniProt Q9HC35) | -0.51 | -0.693 | 1.33
NRBF2 (UniProt Q96F24) | 0.638 | 0.117 | -0.0833

From the supplement of paper PMC12463676, “Small-molecule dissolution of stress granules by redox modulation benefits ALS models” (Nature Chemical Biology, 2025)
